Here are results for one compound from ChEMBL document CHEMBL4680162, “Synthesis and pharmacological evaluation of chlorin derivatives for photodynamic therapy of cholangiocarcinoma” (Eur J Med Chem, 2020).

A short description of series [1]: Absorption property of the compound in DMF assessed as Q band maximum absorption wavelength by UV-visible spectrophotometric method. It is filed as physicochemical.
Series [2] can be described thus: Absorption property of the compound in DMSO assessed as Q band log absorption coefficient by UV-visible spectrophotometric method. It is filed as physicochemical.
The nature of series [3]: Emission property of compound in DMF assessed as Q band emission wavelength by […]. The class given is physicochemical.
The nature of series [4]: Induction of singlet oxygen generation in DMF solution irradiated with 650 nanometer laser light in every 1 min by ESR assay. The class given is functional.
Series [5] in a line: Phototoxicity against human QBC939 cells assessed as reduction in cell viability irradiated with 1 J/cm2 of 650 nanometer laser light preincubated for 24 hrs in dark and measured after 24 hrs by MTT assay. The class given is functional, cell-based. Particulars: QBC939, light or radiation study. Background: Formazan colour is commonly taken as a measure of viable cells.
Series [6] can be described thus: Induction of apoptosis in human QBC939 cells assessed as necrotic cells at 2 uM by annexin V-FITC and propidium iodide staining based flow cytometric analysis. It is filed as functional. On the technique in general: In flow cytometry, cells or beads pass a laser one at a time.
Series [7] is described as follows: Induction of apoptosis in human QBC939 cells assessed as early apoptotic cells at 2 uM by annexin V-FITC and propidium iodide staining based flow cytometric analysis (reference value: 0.01 %). It is filed as functional.
A short description of series [8]: Induction of apoptosis in human QBC939 cells assessed as late apoptotic cells at 2 uM in presence of 2J/cm2 light irradiation measured after 24 hrs by annexin V-FITC and propidium iodide staining based flow cytometric analysis (reference value: 0.01 %). It is filed as functional.
Series [9] in a line: Induction of apoptosis in human QBC939 cells assessed as early apoptotic cells at 2 uM in presence of 2J/cm2 light irradiation measured after 24 hrs by annexin V-FITC and propidium iodide staining based flow cytometric analysis (reference value: 0.01 %). It is filed as functional.
The nature of series [10]: Induction of apoptosis in human QBC939 cells assessed as necrotic cells at 2 uM in presence of 2J/cm2 light irradiation measured after 2 hrs by annexin V-FITC and propidium iodide staining based flow cytometric analysis (reference value: 0.02 %). It is filed as functional.
Series [11] can be described thus: Induction of apoptosis in human QBC939 cells assessed as late apoptotic cells at 2 uM in presence of 2J/cm2 light irradiation measured after 2 hrs by annexin V-FITC and propidium iodide staining based flow cytometric analysis (reference value: 0.01 %). It is filed as functional.
A short description of series [12]: Phototoxicity in ICR mouse assessed as neck skin weight at 1 mg/kg, iv followed by 10 mW/cm2 light irradiation for 10 mins at 1 day after drug challenge and measured after 1 day of light irradiation by H and E staining based microscopic analysis (reference value: 36.5 +/- 2.4 mg). The following applies: in vivo, 48 h, time 2 day. It is filed as organism-based.

The nature of series [13]: Phototoxicity in ICR mouse assessed as ear weight at 1 mg/kg, iv followed by 10 mW/cm2 light irradiation for 10 mins at 1 day after drug challenge and measured after 1 day of light irradiation by H and E staining based microscopic analysis (reference value: 12.4 +/- 1.5 mg). The class given is organism-based. The following applies: in vivo, 48 h, time 2 day.
Series [14] is described as follows: Phototoxicity in ICR mouse assessed as back skin weight at 1 mg/kg, iv followed by 10 mW/cm2 light irradiation for 10 mins at 1 day after drug challenge and measured after 1 day of light irradiation by H and E staining based microscopic analysis (reference value: 34.3 +/- 2.1 mg). It is filed as organism-based. The following applies: in vivo, 48 h, time 2 day.

Series [15] can be described thus: Phototoxicity in ICR mouse assessed as tail weight at 1 mg/kg, iv followed by 10 mW/cm2 light irradiation for 10 mins at 1 day after drug challenge and measured after 1 day of light irradiation by H and E staining based microscopic analysis (reference value: 115.6 +/- 5.6 mg). The class given is organism-based. The following applies: in vivo, 48 h, time 2 day.

Series [16] in a line: Phototoxicity in BALB/c nude mouse xenografted with QBC939 cells assessed as change in heart at 1 mg/kg, iv followed by laser light irradiation at 120 J/cm2 measured after 1 day of light irradiation by H and E staining based histological analysis. It is filed as organism-based. Particulars: in vivo, 24 h.

In general, IC50 refers to the concentration that inhibits the measured activity by half.

Calls of active or inactive are those of the source. No cut-off for these calls is given here.

For `COC(=O)C1(C(=O)O)C2c3nc(c(-c4ccccc4)c4ccc([nH]4)c(-c4ccccc4)c4nc(c(-c5ccccc5)c5ccc([nH]5)c3-c3ccccc3)C=C4)C21` (stereo unspecified), the Activity in [1] stood at 656 nm; in series [2], 4.02; in [3] it was 656 nm; in series [6], 3.6%; in series [7] it was 0.04%; in series [8] it was 69.12%. Besides, the Activity in [9] came to 20.99%; in series [10], 10.73%; in series [11], 14.73%; in [12], 37.9 mg; in series [13] it was 12.8 mg; in [14] it was 35.1 mg. Besides, the values for the Activity in series [15] and in series [16] were 116.5 mg and “Non-Toxic”, respectively. Moreover, in series [4], the result was Active. In addition, the IC50 in series [5] was determined as 1910 nM.
